Measurements from patent US20220389006A1, “SALTS AND FORMS OF AN ESTROGEN RECEPTOR MODULATOR” (Recurium IP Holdings, LLC, priority 2019, published 2022).
Where two headings read alike, the source gives them in different places. Blank lines part the entries; values can stand above or below the compound they belong to.

Legend:
[1] = Crystallinity / form change upon heating (XRPD); format: physicochemical
Description: For XRPD analysis, PANalytical X'Pert3 X-ray powder diffractometer was used.

[2] = HPLC purity before and after heating to 100° C. and 150° C.; format: physicochemical
Protocol: (§1) Form A retains its crystallinity to a temperature of about 150° C. […] In addition, Form A can be heated to at least to 100° C. that can allow for the removal of any trapped solvent without erosion of purity, which can be beneficial. The purity of initial Form A, Form A after being heated to 100° C., and Form A after being heated to 150° C. are shown.

[3] = TGA of samples heated to 150° C. (FIG. 34); format: physicochemical
Protocol: FIG. 34 provides a TGA thermogram for (1) Form A for a sample heated to 150° C., and (2) a sample initially dried under vacuum for 3 hours at 40° C.
as §1
TGA data were collected using a TA Discovery 5500 TGA from TA Instruments. DSC was performed using a TA Discovery 2500 DSC from TA Instruments.

MCF7 = assay: Breast Cancer Cell Proliferation Assay (MCF-7); format: cell-based; conditions: 5 days of compound exposure, Cell Titer-Glo
Protocol: MCF7 was expanded and maintained in the medium (Phenol red free DMEM/F12 (Hyclone SH30272.01) NEAA (Gibco 11140-050) Na-pyruvate (Gibco 11360-070) and Re-stripped Charcoal stripped FBS (Gemini 100-119)). The cells were adjusted to a concentration of 3,000 cells per mL in the above media, and the cells were incubated (37° C., 5% CO2). The following day a 10 point, serial dilution of compounds was added to the cells at a final concentration ranging from 10-0.000005 μM for the test compounds (17β-estradiol was used as a control). Additional cells were plated in 30 wells to serve as the day 1 (pretreatment) comparison. After 5 days of compound exposure, Cell Titer-Glo reagent was added to the cells, and the relative luminescence units (RLUs) of each well was determined. Cell Titer-Glo was also added to 32 μL of medium without cells to obtain a background value. The plates were allowed to incubate at room temperature for 10 minutes to stabilize luminescent signal, and the luminescence signal was recorded with EnSpire. The relative increase in cell number of each sample is determined as follows: (RLU sample-RLU background/RLU estrogen only treated cells-RLU background)×100=% inhibition.

[4] = Crystallinity before and after grinding (XRPD, FIG. 38); format: physicochemical; conditions: for crystallinity after grinding: grinding with a mortar and pestle for approximately 5 minutes, XRPD FIG. 38
Description: (§2) As shown by the top spectrum, the sharp peaks of the HCl salt of Compound A have flattened out compared to the bottom spectrum. […] The data provide in Table 4 further supports the conclusion that Form A maintains its crystallinity compared to the mesylate salt of Compound A.

[5] = Solid-state storage stability of free base Form I at 5, 40 and 60° C. (HPLC); format: physicochemical; conditions: for Area % of A / Purity vs. Initial %: HPLC
Protocol: Form I was stable in its solid state at 5° C. for 7 days, but degraded upon storage at 40° C. and 60° C.
In Table 1, “A” represents Compound A, and the data was obtained via HPLC.

[6] = Crystallinity during sample preparation (XRPD, FIG. 37); format: physicochemical
Description: FIG. 37 provides a representative XRPD pattern of a second HCl salt of Compound A (prior to sample preparation and after re-preparation of the sample).
as §2

SMILES: CC1Cc2c([nH]c3ccccc23)C(c2c(F)cc(C=CC(=O)O)cc2F)N1C12CC(C1)C2.O=S(=O)(O)O (centres unmarked) [Form A]
- Form change ([1]; Heated to 100° C.): No
- Form change ([1]; Heated to 150° C.): No
- temperature to which crystallinity is retained ([1]; XRPD, FIG. 31): about 150 °C
- HPLC peak No. 2, RRT 0.55 (degradation) ([2]; After heating to 100° C.): 0.67
- HPLC peak No. 3, RRT 0.59 (degradation) ([2]; After heating to 100° C.): <0.05
- HPLC peak No. 5, RRT 0.90 (degradation) ([2]; After heating to 100° C.): <0.05
- HPLC peak No. 6, RRT 0.94 (degradation) ([2]; After heating to 100° C.): <0.05
- HPLC peak No. 8, RRT 0.97 (degradation) ([2]; After heating to 100° C.): <0.05
- HPLC peak No. 9, RRT 1.00 (Compound A), purity ([2]; After heating to 100° C.): 99.07
- HPLC peak No. 2, RRT 0.55 (degradation) ([2]; After heating to 150° C.): 0.76
- HPLC peak No. 3, RRT 0.59 (degradation) ([2]; After heating to 150° C.): 0.18
- HPLC peak No. 5, RRT 0.90 (degradation) ([2]; After heating to 150° C.): 0.21
- HPLC peak No. 6, RRT 0.94 (degradation) ([2]; After heating to 150° C.): 0.16
- HPLC peak No. 8, RRT 0.97 (degradation) ([2]; After heating to 150° C.): 0.24
- HPLC peak No. 9, RRT 1.00 (Compound A), purity ([2]; After heating to 150° C.): 97.98
- heat-promoted degradation ([2]; HPLC, heated to 100° C. and 150° C.): resistant to heat-promoted degradation
- Purity (area %) ([2]; Heated to 100° C.): 99.1 area %
- Purity (area %) ([2]; Heated to 150° C.): 98.0 area %
- Purity (area %) ([2]; Initial): 99.1 area %
- HPLC peak No. 2, RRT 0.55 (degradation) ([2]; Initial (before heating)): 0.67
- HPLC peak No. 3, RRT 0.59 (degradation) ([2]; Initial (before heating)): <0.05
- HPLC peak No. 5, RRT 0.90 (degradation) ([2]; Initial (before heating)): <0.05
- HPLC peak No. 6, RRT 0.94 (degradation) ([2]; Initial (before heating)): <0.05
- HPLC peak No. 8, RRT 0.97 (degradation) ([2]; Initial (before heating)): <0.05
- HPLC peak No. 9, RRT 1.00 (Compound A), purity ([2]; Initial (before heating)): 99.07
- degradation (FIG. 34) ([3]; sample heated directly to 150 C): 4.47%
- degradation (FIG. 34) ([3]; sample heated to a lower temperature (<100° C.) and then to 150° C.): 3.54%
- IC50 (MCF7): 0.2 nM
- stability after one week (25° C. and 60% relative humidity): stable
- stability after one week (40° C. and 75% relatively humidity): stable
- Crystallinity ([4]; After grinding for 5 mins.): Decreased crystallinity
- Crystallinity ([4]; Initial): Crystalline
- crystallinity after grinding [4]: maintain its crystallinity

SMILES: CC1Cc2c([nH]c3ccccc23)C(c2c(F)cc(C=CC(=O)O)cc2F)N1C12CC(C1)C2 (centres unmarked) [Form I]
- crystallinity upon heating ([1]; XRPD, FIG. 30 (initially, after 1, 3 and 7 days)): lose crystallinity
- stability in solid state ([5]; 5° C. for 7 days): stable
- Area % of A ([5]; 5° C., 1 Day): 98.24%
- Purity vs. Initial % ([5]; 5° C., 1 Day): 99.8%
- Area % of A ([5]; 5° C., 3 Days): 98.09%
- Purity vs. Initial % ([5]; 5° C., 3 Days): 99.6%
- Area % of A ([5]; 5° C., 7 Days): 98.14%
- Purity vs. Initial % ([5]; 5° C., 7 Days): 99.7%
- Area % of A ([5]; 40° C., 1 Day): 97.60%
- Purity vs. Initial % ([5]; 40° C., 1 Day): 99.1%
- Area % of A ([5]; 40° C., 3 Days): 96.79%
- Purity vs. Initial % ([5]; 40° C., 3 Days): 98.3%
- Area % of A ([5]; 40° C., 7 Days): 96.18%
- Purity vs. Initial % ([5]; 40° C., 7 Days): 97.7%
- Area % of A ([5]; 60° C., 1 Day): 93.42%
- Purity vs. Initial % ([5]; 60° C., 1 Day): 94.9%
- Area % of A ([5]; 60° C., 3 Days): 88.31%
- Purity vs. Initial % ([5]; 60° C., 3 Days): 89.7%
- Area % of A ([5]; 60° C., 7 Days): 80.95%
- Purity vs. Initial % ([5]; 60° C., 7 Days): 82.2%
- degradation ([5]; after 7 days at 40° C.): approximately 2%
- degradation ([5]; after 7 days at 60° C.): approximately 18%

- IC50 (MCF7; Homo sapiens, MCF7, 120 h): 0.4 nM
SMILES: C[C@@H]1Cc2c([nH]c3ccccc23)[C@@H](c2c(F)cc(/C=C/C(=O)O)cc2F)N1C12CC(C1)C2 [Free base of Compound A, (E)-3-(4-((1R,3R)-2-(Bicyclo[1.1.1]pentan-1-yl)-3-methyl-2,3,4,9-tetrahydro-1H-pyrido[3,4-b]indol-1-yl)-3,5-difluorophenyl)acrylic acid]

SMILES: CC1Cc2c([nH]c3ccccc23)C(c2c(F)cc(C=CC(=O)O)cc2F)N1C12CC(C1)C2.Cl (centres unmarked) [HCl salt of Compound A]
- crystallinity during sample preparation [6]: variable crystallinity

SMILES: CC1Cc2c([nH]c3ccccc23)C(c2c(F)cc(C=CC(=O)O)cc2F)N1C12CC(C1)C2.CS(=O)(=O)O (centres unmarked) [Mesylate salt of Compound A]
- Form change ([1]; Heated to 100° C.): No
- Form change ([1]; Heated to 150° C.): No
- Purity (area %) ([2]; Heated to 100° C.): 98.4 area %
- Purity (area %) ([2]; Heated to 150° C.): 97.1 area %
- Purity (area %) ([2]; Initial): 98.4 area %
- Crystallinity ([4]; After grinding for 5 mins.): Amorphous
- Crystallinity ([4]; Initial): Crystalline
- crystallinity after grinding [4]: loss of crystallinity
